From patent publication US10526327B2, “Histone demethylase inhibitors” (CELGENE QUANTICEL RESEARCH, INC., priority 2013, dated 2020)

Key:
JMJD2C = target: T1, JMJD2C (Homo sapiens, UniProt Q9H3R0); test: JMJD2C in vitro enzyme inhibition assay (TR-FRET); assay type: biochemical
T1 construct: purchased BPS Bioscience 50105
T1 sequence (Q9H3R0 2-372): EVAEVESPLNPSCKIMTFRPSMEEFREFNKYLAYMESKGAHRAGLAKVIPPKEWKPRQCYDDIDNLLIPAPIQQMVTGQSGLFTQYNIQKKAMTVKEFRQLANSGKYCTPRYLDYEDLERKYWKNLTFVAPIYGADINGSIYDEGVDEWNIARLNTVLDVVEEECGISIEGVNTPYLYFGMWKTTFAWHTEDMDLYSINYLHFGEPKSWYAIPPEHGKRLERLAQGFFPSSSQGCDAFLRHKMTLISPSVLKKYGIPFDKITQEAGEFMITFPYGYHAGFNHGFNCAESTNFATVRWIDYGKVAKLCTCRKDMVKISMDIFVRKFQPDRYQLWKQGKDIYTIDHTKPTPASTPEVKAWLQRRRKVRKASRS
Procedure, shortened: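 Baculovirus-expressed human JMJD2C (AA 2-372) at 0.3 nM demethylated 300 nM biotin-H3K9me3 peptide with 2 μM alpha-ketoglutarate in HEPES pH 7.3 containing ascorbate and Fe(II), 30 min at room temperature. EDTA-stopped product was read by TR-FRET with Eu-anti-H3K9me2 and streptavidin-APC; 665/615 ratios from 11-point dilutions gave IC50.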

KDM5A/B = test: In vitro cell-based assay: immuno-blot quantification of tri-methyl H3K4 in ZR-75-1 breast cancer cells; conditions: 72 hours, tri-methyl H3K4 level relative to GAPDH, percent of DMSO, read-out: Cellular IC50
Procedure, shortened: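 ZR-75-1 breast cancer cells treated 72 h with 11-point compound dilutions (1250 μM to 10 nM). H3K4me3 quantified by infrared immunoblot densitometry, normalized to GAPDH and expressed as percent of DMSO control; relative IC50 from curve fit.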

IC50 (JMJD2C) | IC50 (KDM5A/B) | Structure (SMILES)
≤ 100 nM | 100 to 1000 nM | C[C@@H](c1ccccc1)n1cc(Oc2nc(O)c3ccncc3n2)cn1 [Example 118, 2-({1-[(1S)-1-phenylethyl]-1H-pyrazol-4-yl}oxypyrido) [3,4-d]pyrimidin-4-ol]
≤ 100 nM | 100 to 1000 nM | C[C@H](c1ccccc1F)n1cc(Oc2nc(O)c3ccncc3n2)cn1 [Example 119, 2-({1-[(1R)-1-(2-fluorophenyl)ethyl]-1H-pyrazol-4-yl}oxy)pyrido[3,4-d]pyrimidin-4-ol]
≤ 100 nM | 1000 to 10000 nM | C[C@@H](c1ccccc1F)n1cc(Oc2nc(O)c3ccncc3n2)cn1 [Example 120, 2-({1-[(1s)-1-(2-fluorophenyl)ethyl]-1H-pyrazol-4-yl}oxy)pyrido[3,4-d]pyrimidin-4-ol]
≤ 100 nM | 1000 to 10000 nM | Oc1nc(Oc2cnn(Cc3ccccc3Cl)c2)nc2cnccc12 [Example 121, 2-({1-[(2-chlorophenyl)methyl]-1H-pyrazol-4-yl}oxy)pyrido[3,4-d]pyrimidin-4-ol]
≤ 100 nM | 1000 to 10000 nM | Oc1nc(Oc2cnn(Cc3cccc(Cl)c3)c2)nc2cnccc12 [Example 122, 2-({1-[(3-chlorophenyl)methyl]-1H-pyrazol-4-yl}oxy)pyrido[3,4-d]pyrimidin-4-ol]
≤ 100 nM | 100 to 1000 nM | Oc1nc(Oc2cnn(CCN3CCOCC3)c2)nc2cnccc12 [Example 124, 2-({1-[2-(morpholin-4-yl)ethyl]-1H-pyrazol-4-yl}oxy)pyrido[3,4-d]pyrimidin-4-ol]
≤ 100 nM | > 10000 nM | Oc1nc(Oc2cnn([C@@H]3CCNC3)c2)nc2cnccc12 [Example 125, 2-({1-[(3R)-pyrrolidin-3-yl]-1H-pyrazol-4-yl}oxy)pyrido[3,4-d]pyrimidin-4-ol]
≤ 100 nM | > 10000 nM | CCS(=O)(=O)N1CC[C@@H](n2cc(Oc3nc(O)c4ccncc4n3)cn2)C1 [Example 126, 2-({1-[(3R)-1-(ethanesulfonyl)pyrrolidin-3-yl]-1H-pyrazol-4-yl}oxy)pyrido[3,4-d]pyrimidin-4-ol]
≤ 100 nM | 1000 to 10000 nM | O=S(=O)(C1CC1)N1CC[C@@H](n2cc(Oc3nc(O)c4ccncc4n3)cn2)C1 [Example 127, 2-({1-[(3R)-1-(cyclopropanesulfonyl)pyrrolidin-3-yl]-1H-pyrazol-4-yl}oxy)pyrido[3,4-d]pyrimidin-4-ol]
≤ 100 nM | 1000 to 10000 nM | O=S(=O)(c1ccccc1)N1CC[C@@H](n2cc(Oc3nc(O)c4ccncc4n3)cn2)C1 [Example 128, 2-({1-[(3R)-1-(benzenesulfonyl)pyrrolidin-3-yl]-1H-pyrazol-4-yl}oxy)pyrido[3,4-d]pyrimidin-4-ol]
≤ 100 nM | > 10000 nM | CC(=O)N1CC[C@@H](n2cc(Oc3nc(O)c4ccncc4n3)cn2)C1 [Example 129, 1-[(3R)-3-[4-({4-hydroxypyrido[3,4-d]pyrimidin-2-yl}oxy)-1H-pyrazol-1-yl]pyrrolidin-1-yl]ethan-1-one]
≤ 100 nM | > 10000 nM | N#CCC(=O)N1CC[C@@H](n2cc(Oc3nc(O)c4ccncc4n3)cn2)C1 [Example 130, 3-[(3R)-3-[4-({4-hydroxypyrido[3,4-d]pyrimidin-2-yl}oxy)-1H-pyrazol-1-yl]pyrrolidin-1-yl]-3-oxopropanenitrile]
≤ 100 nM | 1000 to 10000 nM | O=C(C1CC1)N1CC[C@@H](n2cc(Oc3nc(O)c4ccncc4n3)cn2)C1 [Example 131, 2-({1-[(3R)-1-cyclopropanecarbonylpyrrolidin-3-yl]-1H-pyrazol-4-yl}oxy)pyrido[3,4-d]pyrimidin-4-ol]
≤ 100 nM | 1000 to 10000 nM | O=C(c1ccccc1)N1CC[C@@H](n2cc(Oc3nc(O)c4ccncc4n3)cn2)C1 [Example 132, 2-({1-[(3R)-1-benzoylpyrrolidin-3-yl]-1H-pyrazol-4-yl}oxy)pyrido[3,4-d]pyrimidin-4-ol]
≤ 100 nM | 1000 to 10000 nM | Oc1nc(Oc2cnn([C@@H]3CCN(Cc4ccccc4)C3)c2)nc2cnccc12 [Example 133, 2-({1-[(3R)-1-benzylpyrrolidin-3-yl]-1H-pyrazol-4-yl}oxy)pyrido[3,4-d]pyrimidin-4-ol]
≤ 100 nM | 100 to 1000 nM | Oc1nc(Oc2cnn([C@@H]3CCN(c4ccc(F)cc4)C3)c2)nc2cnccc12 [Example 134, 2-({1-[(3R)-1-(4-fluorophenyl)pyrrolidin-3-yl]-1H-pyrazol-4-yl}oxy)pyrido[3,4-d]pyrimidin-4-ol]
≤ 100 nM | > 10000 nM | Oc1nc(Oc2cnn([C@H]3CCNC3)c2)nc2cnccc12 [Example 135, 2-({1-[(3S)-pyrrolidin-3-yl]-1H-pyrazol-4-yl}oxy)pyrido[3,4-d]pyrimidin-4-ol]
≤ 100 nM | 100 to 1000 nM | CCS(=O)(=O)N1CC[C@H](n2cc(Oc3nc(O)c4ccncc4n3)cn2)C1 [Example 136, 2-({1-[(3S)-1-(ethanesulfonyl)pyrrolidin-3-yl]-1H-pyrazol-4-yl}oxy)pyrido[3,4-d]pyrimidin-4-ol]
≤ 100 nM | 100 to 1000 nM | O=S(=O)(C1CC1)N1CC[C@H](n2cc(Oc3nc(O)c4ccncc4n3)cn2)C1 [Example 137, 2-({1-[(3S)-1-(cyclopropanesulfonyl)pyrrolidin-3-yl]-1H-pyrazol-4-yl}oxy)pyrido[3,4-d]pyrimidin-4-ol]
≤ 100 nM | 1000 to 10000 nM | O=S(=O)(c1ccccc1)N1CC[C@H](n2cc(Oc3nc(O)c4ccncc4n3)cn2)C1 [Example 138, 2-({1-[(3S)-1-(benzenesulfonyl)pyrrolidin-3-yl]-1H-pyrazol-4-yl}oxy)pyrido[3,4-d]pyrimidin-4-ol]
≤ 100 nM | > 10000 nM | CC(=O)N1CC[C@H](n2cc(Oc3nc(O)c4ccncc4n3)cn2)C1 [Example 139, 1-[(3S)-3-[4-({4-hydroxypyrido[3,4-d]pyrimidin-2-yl}oxy)-1H-pyrazol-1-yl]pyrrolidin-1-yl]ethan-1-one]
≤ 100 nM | > 10000 nM | N#CCC(=O)N1CC[C@H](n2cc(Oc3nc(O)c4ccncc4n3)cn2)C1 [Example 140, 3-[(3S)-3-[4-({4-hydroxypyrido[3,4-d]pyrimidin-2-yl}oxy)-1H-pyrazol-1-yl]pyrrolidin-1-yl]-3-oxopropanenitrile]
≤ 100 nM | > 10000 nM | O=C(C1CC1)N1CC[C@H](n2cc(Oc3nc(O)c4ccncc4n3)cn2)C1 [Example 141, 2-({1-[(3S)-1-cyclopropanecarbonylpyrrolidin-3-yl]-1H-pyrazol-4-yl}oxy)pyrido[3,4-d]pyrimidin-4-ol]
≤ 100 nM | > 10000 nM | O=C(c1ccccc1)N1CC[C@H](n2cc(Oc3nc(O)c4ccncc4n3)cn2)C1 [Example 142, 2-({1-[(3S)-1-benzoylpyrrolidin-3-yl]-1H-pyrazol-4-yl}oxy)pyrido[3,4-d]pyrimidin-4-ol]
≤ 100 nM | 1000 to 10000 nM | Oc1nc(Oc2cnn([C@H]3CCN(c4ccccc4)C3)c2)nc2cnccc12 [Example 145, 2-({1-[(3S)-1-phenylpyrrolidin-3-yl]-1H-pyrazol-4-yl}oxy)pyrido[3,4-d]pyrimidin-4-ol]
≤ 100 nM | 1000 to 10000 nM | Oc1nc(Oc2cnn([C@H]3CCN(c4ccc(F)cc4)C3)c2)nc2cnccc12 [Example 146, 2-({1-[(3S)-1-(4-fluorophenyl)pyrrolidin-3-yl]-1H-pyrazol-4-yl}oxy)pyrido[3,4-d]pyrimidin-4-ol]
